Where two headings read alike, the source gives them in different places.
Assays:
[1] = target: T1, MAGL (Mus musculus, UniProt O35678); experiment: In vivo MAGL inhibition in mouse brain proteomes after oral gavage; conditions: 5 mg/kg oral gavage, 4 h after administration, read-out: MAGL % inh. 5 mg/kg (mouse)
T1 construct: brain proteomes were prepared and analyzed according to previously established methods; from tissue; host or cells: brain of wild-type C57Bl/6J mice
T1 sequence (O35678 1-303): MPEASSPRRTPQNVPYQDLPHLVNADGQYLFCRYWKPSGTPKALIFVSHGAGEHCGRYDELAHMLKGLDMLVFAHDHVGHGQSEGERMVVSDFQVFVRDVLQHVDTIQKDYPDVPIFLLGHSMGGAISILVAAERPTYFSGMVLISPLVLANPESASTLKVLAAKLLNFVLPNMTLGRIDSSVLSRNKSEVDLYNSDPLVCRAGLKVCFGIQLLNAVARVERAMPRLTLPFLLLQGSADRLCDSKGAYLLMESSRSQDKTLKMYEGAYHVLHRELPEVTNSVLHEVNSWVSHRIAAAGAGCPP
Procedure: Inhibitors were administered to wild-type C57B1/6J by oral gavage in a vehicle of polyethylene glycol. Each animal was sacrificed 4 h following administration and brain proteomes were prepared and analyzed according to previously established methods (See Niphakis, M. J., et al. (2011) ACS Chem. Neurosci. and Long, J. Z., et al. Nat. Chem. Biol. 5:37-44).

[2] = Kinetic solubility in PBS; assay type: physicochemical; conditions: aqueous buffer, kinetic from dmso stock
Procedure: The kinetic solubility of test articles was determined in PBS at pH 2.0 and pH 7.4 in duplicate. A stock solution of test compound in DMSO (10 mM) was incubated at RT for 2 hours with shaking at 1,100 RPM. The sample was then filtered using a vacuum manifold, diluted, and analyzed by LC-MS/MS. Chromatographic conditions: Phenomenex Synergi 4μ Hydro-PR 80A column (2.0×30 mm) coupled with pre-guard column; mobile phase=0.1% formic acid in acetonitrile and 0.1% formic acid in water; flowrate=0.65 mL/min; column temperature=40° C.; injection volume: 3 μL.
Mass conditions: Turbo spray ion source; ESI ionization model; MRM scan type; Collison gas=6 L/min; Curtain gas=30 L/min; Nebulize gas=50 L/min; Auxiliary gas=50 L/min; Temperature=500 degrees C.; Ion spray voltage=+5500 v (positive MRM).
The filtered solution was analyzed and quantified against a standard of known concentration in DMSO using UPLC coupled with mass spectral peak identification and quantitation. Solubility values of the test articles were calculated using Microsoft Excel as follows (DF is the dilution factor): […]

[3] = In vitro human hepatocyte stability; assay type: in vitro ADME; conditions: cryopreserved human hepatocytes (pooled donor), human hepatocytes 0.5×10^6 cells/mL, read-out: Scaled-up unbound CLint
Procedure: The metabolic stability of test articles (1 μM) in commercially sourced, pooled donor, cryopreserved human hepatocytes (0.5×10^6 cells/mL) was determined in duplicate. The CLint reactions (250 μL) were initiated by addition of test compound. Aliquots (25 μL) were taken at 0, 15, 30, 45, 60, 90, 120 and 240 minutes and then protein crashed with ice-cold acetonitrile containing internal standard then centrifuged (3220 g for 25 minutes). Supernatant was used for LC-MS/MS analysis. The in vitro half-life (in vitro t1/2) was determined from the slope value: in vitro t1/2=−0.693/k. Conversion of the in vitro t1/2 (in min) into the scale-up unbound intrinsic clearance (Scaled-up unbound CLint, in mL/min/kg) was done using the following equation (mean of duplicate determinations), with data shown in Table 5: Scaled-up unbound CLint=kV/N×scaling factor. V=incubation volume (0.25 mL); N=number of hepatocytes per well ([…]). Scaling factors for in vivo intrinsic clearance prediction are listed below: […]

[4] = target: T2, MAGL (Homo sapiens, UniProt Q99685); experiment: In vitro competitive activity-based protein profiling (PC3 human cell membrane proteomes); assay type: biochemical
T2 construct: PC3 human cell membrane proteomes; endogenous in cells; host or cells: PC3 human cells (membrane proteome)
T2 sequence (Q99685 1-303): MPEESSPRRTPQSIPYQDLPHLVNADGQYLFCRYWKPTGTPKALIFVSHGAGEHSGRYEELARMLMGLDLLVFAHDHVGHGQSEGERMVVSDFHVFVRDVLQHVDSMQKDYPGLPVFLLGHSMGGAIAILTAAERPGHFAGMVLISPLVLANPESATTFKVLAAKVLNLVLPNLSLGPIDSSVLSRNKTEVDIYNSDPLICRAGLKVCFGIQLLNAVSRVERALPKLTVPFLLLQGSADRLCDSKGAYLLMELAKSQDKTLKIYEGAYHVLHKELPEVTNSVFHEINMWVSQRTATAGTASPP
Procedure: PC3 human cell membrane proteomes (50 µL, 2.0 mg/mL total protein concentration) were preincubated with varying concentrations of inhibitors at 37° C. After 30 min, the ABPP probe JW912-Bodipy (1.0 µL, 50 µM in DMSO) was added and the mixture was incubated for 30 min at room temperature. Reactions were quenched with SDS loading buffer (15 μL-4×) and run on SDS-PAGE. Following gel imaging, serine hydrolase activity was determined by measuring fluorescent intensity of gel bands corresponding to MAGL using ImageJ 1.43u software. Intensities were converted to percent enzyme activity by normalizing to DMSO controls. IC50 values were determined by fitting percent enzyme activities to a non-linear regression, 4-parameter, sigmoidal dose response function in Prism GraphPad.

[5] = PBS pH 7.4, RT, read-out: pH 7.4 Solubility (kinetic)

inhibition at 5 mg/kg [1] [%] | SMILES | solubility kinetic at 2 h [2, 5] [µM] | CLint scaled at 1 μM [3] [mL/min/kg] | further results
0 | COc1ccc(NC(=O)[C@@H]2CC23CCN(C(=O)OC(C(F)(F)F)C(F)(F)F)CC3)cn1 (single isomer, unassigned) [Example 36] |  |  | 
75 | O=C(Nc1ccnnc1)C1CC12CCN(C(=O)OC(C(F)(F)F)C(F)(F)F)CC2 (single isomer, unassigned) [Example 108, 1,1,1,3,3,3-hexafluoropropan-2-yl (R or S)-1-(pyridazin-4-ylcarbamoyl)-6-azaspiro[2.5]octane-6-carboxylate] |  |  | 
 | CS(=O)(=O)Nc1ccc(NC(=O)C2CC23CCN(C(=O)OC(C(F)(F)F)C(F)(F)F)CC3)cn1 (single isomer, unassigned) [Example 181, 1,1,1,3,3,3-hexafluoropropan-2-yl (R or S)-1-((6-(methylsulfonamido)pyridin-3-yl)carbamoyl)-6-azaspiro[2.5]octane-6-carboxylate] | 296 | 1.94 | 
 | CC1(CNC(=O)C2CC23CCN(C(=O)OC(C(F)(F)F)C(F)(F)F)CC3)CCOCC1 (single isomer, unassigned) [Example 168, 1,1,1,3,3,3-hexafluoropropan-2-yl (R or S)-1-(((4-methyltetrahydro-2H-pyran-4-yl)methyl)carbamoyl)-6-azaspiro[2.5]octane-6-carboxylate] |  | 61.4 | 
 | O=C(Nc1ccc(-n2cccn2)nc1)C1CC12CCN(C(=O)OC(C(F)(F)F)C(F)(F)F)CC2 (single isomer, unassigned) [Example 29, 1,1,1,3,3,3-hexafluoropropan-2-yl (R or S)-1-((6-(1H-pyrazol-1-yl)pyridin-3-yl)carbamoyl)-6-azaspiro[2.5]octane-6-carboxylate] | 8.63 | 32.7 | 
25 | COc1ccc(NC(=O)[C@H]2CC23CCN(C(=O)OC(C(F)(F)F)C(F)(F)F)CC3)cn1 (single isomer, unassigned) [Example 37] |  |  | 
0 | Cc1ccc(NC(=O)[C@H]2CC23CCN(C(=O)OC(C(F)(F)F)C(F)(F)F)CC3)nn1 (single isomer, unassigned) [Example 106] |  |  | 
 | O=C(Nc1ccc(C(F)(F)F)nc1)C1CC12CCN(C(=O)OC(C(F)(F)F)C(F)(F)F)CC2 (single isomer, unassigned) [Example 78, 1,1,1,3,3,3-hexafluoropropan-2-yl (R or S)-1-((6-(trifluoromethyl)pyridin-3-yl)carbamoyl)-6-azaspiro[2.5]octane-6-carboxylate] | 12.6 |  | MAGL % inh. 1 µM (human PC3) [4]: 100%; solubility kinetic at 2 h ([2]; PBS pH 2.0, RT, read-out: pH 2 Solubility (kinetic)): 17 µM
 | O=C(OC(C(F)(F)F)C(F)(F)F)N1CCC2(CC1)CC2C(=O)N1CCc2ncncc2C1 (single isomer, unassigned) [Example 60, 1,1,1,3,3,3-hexafluoropropan-2-yl (R or S)-1-(5,6,7,8-tetrahydropyrido[4,3-d]pyrimidine-6-carbonyl)-6-azaspiro[2.5]octane-6-carboxylate] | 259 |  | MAGL % inh. 1 µM (human PC3) [4]: 100%
 | O=C(Nc1cnc(C(F)(F)F)nc1)C1CC12CCN(C(=O)OC(C(F)(F)F)C(F)(F)F)CC2 (single isomer, unassigned) [Example 99, 1,1,1,3,3,3-hexafluoropropan-2-yl (R or S)-1-((2-(trifluoromethyl)pyrimidin-5-yl)carbamoyl)-6-azaspiro[2.5]octane-6-carboxylate] | 28.5 |  | MAGL % inh. 1 µM (human PC3) [4]: 100%
0 | O=C(Nc1cccnn1)[C@@H]1CC12CCN(C(=O)OC(C(F)(F)F)C(F)(F)F)CC2 [Example 5, 1,1,1,3,3,3-Hexafluoropropan-2-yl (R)-1-(pyridazin-3-ylcarbamoyl)-6-azaspiro[2.5]octane-6-carboxylate] |  |  | 
50 | Cc1ncc(NC(=O)C2CC23CCN(C(=O)OC(C(F)(F)F)C(F)(F)F)CC3)cn1 (single isomer, unassigned) [Example 103, 1,1,1,3,3,3-hexafluoropropan-2-yl (R or S)-1-((2-methylpyrimidin-5-yl)carbamoyl)-6-azaspiro[2.5]octane-6-carboxylate] |  |  | 
 | O=C(NCc1cccc(C(F)(F)F)n1)C1CC12CCN(C(=O)OC(C(F)(F)F)C(F)(F)F)CC2 (single isomer, unassigned) [Example 76, 1,1,1,3,3,3-hexafluoropropan-2-yl (R or S)-1-(((6-(trifluoromethyl)pyridin-2-yl)methyl)carbamoyl)-6-azaspiro[2.5]octane-6-carboxylate] | 1.33 |  | MAGL % inh. 1 µM (human PC3) [4]: 100%
 | O=C(NCc1ccccc1)[C@H]1CC12CCN(C(=O)OC(C(F)(F)F)C(F)(F)F)CC2 (single isomer, unassigned) [Example 150] |  | 88.8 | 

SMILES | inhibition at 5 mg/kg [1] [%] | solubility kinetic at 2 h [2, 5] [µM] | CLint scaled at 1 μM [3] [mL/min/kg] | further results
Cc1ccc(NC(=O)C2CC23CCN(C(=O)OC(C(F)(F)F)C(F)(F)F)CC3)cn1 (single isomer, unassigned) [Example 81, 1,1,1,3,3,3-hexafluoropropan-2-yl (R or S)-1-((6-methylpyridin-3-yl)carbamoyl)-6-azaspiro[2.5]octane-6-carboxylate] | 25 | 130 |  | 
Cn1nccc1NC(=O)C1CC12CCN(C(=O)OC(C(F)(F)F)C(F)(F)F)CC2 (single isomer, unassigned) [Example 135, 1,1,1,3,3,3-hexafluoropropan-2-yl (R or S)-1-((1-methyl-1H-pyrazol-5-yl)carbamoyl)-6-azaspiro[2.5]octane-6-carboxylate] | 100 |  | 16.8 | 
O=C(Nc1nccs1)C1CC12CCN(C(=O)OC(C(F)(F)F)C(F)(F)F)CC2 (single isomer, unassigned) [Example 138, 1,1,1,3,3,3-hexafluoropropan-2-yl (R or S)-1-(thiazol-2-ylcarbamoyl)-6-azaspiro[2.5]octane-6-carboxylate] | 75 |  | 40.5 | 
CN(C(=O)C1CC12CCN(C(=O)OC(C(F)(F)F)C(F)(F)F)CC2)c1cccnc1 (single isomer, unassigned) [Example 43, 1,1,1,3,3,3-hexafluoropropan-2-yl (R or S)-1-(methyl(pyridin-3-yl)carbamoyl)-6-azaspiro[2.5]octane-6-carboxylate] | 100 | 233 |  | MAGL % inh. 1 µM (human PC3) [4]: 100%

Source: patent US11434222B2, “MAGL inhibitors” (H. LUNDBECK A/S, priority 2020, dated 2022)
